Values quoted from earlier work, collected in publication PMC10757118, “HS‐10352 in hormone receptor‐positive, HER2‐negative advanced breast cancer: A phase 1 dose‐escalation trial” (Cancer Medicine, 2023).

How the values were obtained:
[1] = tested on: PIK3CA‐mutant breast cancer; set-up: method as in PMID 29066505; settings: PIK3CA‐mutant breast cancer patients ref 31
[2] = tested on: PIK3CA‐mutant, HR‐positive, HER2‐negative breast cancer; set-up: method as in ref 33 = [33]; 33 Juric D , Kalinsky K , Oliveira M , et al. Abstract OT1‐08‐04: a first‐in‐human phase Ia dose escalation study of GDC‐0077, a p110a‐selective and mutant‐degrading PI3K inhibitor, in patients with P; settings: single agent, HER2‐negative breast cancer patients ref 33
[3] = tested on: ER‐positive, HER2‐negative breast cancer; set-up: method as in PMID 29401002; settings: monotherapy, HER2‐negative breast cancer patients ref 19
[4] = tested on: HR‐positive, HER2‐negative breast cancer with altered AKT pathways; set-up: method as in ref 35 = [35]; 35 Turner N , Oliveira M , Howell SJ , et al. Abstract GS3‐04: GS3‐04 Capivasertib and fulvestrant for patients with aromatase inhibitor‐resistant hormone receptor‐positive/human epidermal growth fact; settings: CAPItello‐291, altered AKT pathways ref 35

Structure (SMILES): NC1(C(=O)N[C@@H](CCO)c2ccc(Cl)cc2)CCN(c2ncnc3[nH]ccc23)CC1 [Capivasertib]
- ORR [1]: 4%

Structure (SMILES): C[C@H](Nc1ccc2c(c1)OCCn1cc(N3C(=O)OC[C@H]3C(F)F)nc1-2)C(N)=O [GDC‐0077]
- confirmed ORR [2]: 20%

Structure (SMILES): Cc1nc(NC(=O)N2CCC[C@H]2C(N)=O)sc1-c1ccnc(C(C)(C)C(F)(F)F)c1 [alpelisib]
- ORR [3]: 4.3%

Structure (SMILES): C[C@]12CC[C@@H]3c4ccc(O)cc4C[C@@H](CCCCCCCCC[S+]([O-])CCCC(F)(F)C(F)(F)F)[C@H]3[C@@H]1CC[C@@H]2O (some centres unmarked) [fulvestrant without capivasertib]
- ORR [4]: 9.7%
- median PFS [4]: 3.1 months
